Consider three molecules from ChEMBL document CHEMBL3714758, “3H-imidazo[4,5-b]pyridin-5-ol derivatives useful in the treatment of GPR81 receptor disorders” (2013).

Assay [1] deals with Mus musculus. Put plainly: Reduction in circulating free fatty acids in food-deprived C57/B16 mouse at 100 mg/kg, ip measured after 30 mins by NEFA assay. In kind it is functional, organism-based.
Assay [2] concerns Adipocyte. The experiment in a line: Inhibition of lipolysis in Sprague-Dawley rat epididymal adipocytes pre-incubated for 10 mins before theophylline addition followed by further incubation for 3 hrs by microplate reader based assay. In kind it is functional, cell-based.
Assay [3] has as its system Rattus norvegicus. Put plainly: Reduction in circulating free fatty acids in food-deprived Sprague-Dawley rat at 1 to 100 mg/kg, po measured after 10 to 240 mins post dose by NEFA assay. In kind it is functional, organism-based.

Active and inactive are the calls of the source. The calls are words filed in the database; no cut-off is given here.

Take `Oc1ccc2ncn(-c3ccccc3C(F)(F)F)c2n1`: the inhibition result in assay [1] was “Active”. For `O=C(O)c1cccnc1`, the inhibition result in assay [1] was “Active”. For `Oc1ccc2ncn(-c3ccccc3Cl)c2n1`, in assay [2], the IC50 (usually the concentration at which inhibition is half-maximal) was 234 nM. The inhibition entry in assay [1] and in assay [3] was “Active” each time.
